Reference: PubChem BioAssay (NCI)
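These data come from cells grown in 96-well plates and exposed to compound for 48 hours at five concentrations. TGI is the concentration that stops growth completely.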

Experiments:
Assay in all cases: NCI anticancer screen, dose series, 48 h
PC-3 prostate = system: PC-3 prostate
KM12 colon = system: KM12 colon
MDA-MB-435 = system: MDA-MB-435
K-562 leukemia = system: K-562 leukemia
CAKI-1 renal = system: CAKI-1 renal
HL-60(TB) leukemia = system: HL-60(TB) leukemia
MDA-MB-231 breast = system: MDA-MB-231 breast
MCF7 breast = system: MCF7 breast
HCT-15 colon = system: HCT-15 colon
OVCAR-4 ovarian = system: OVCAR-4 ovarian

SMILES	TGI (PC-3 prostate)	TGI (KM12 colon)	TGI (MDA-MB-435)	TGI (K-562 leukemia)	TGI (CAKI-1 renal)	TGI (HL-60(TB) leukemia)	TGI (MDA-MB-231 breast)	TGI (MCF7 breast)	TGI (HCT-15 colon)	TGI (OVCAR-4 ovarian)
COc1cccc(O)c1-c1cc(=O)c2c(O)c(OC)c(OC)c(OC)c2o1	66.7 µM	77.8 µM	55.4 µM	> 100 µM	> 100 µM	46.7 µM	> 100 µM	77.7 µM	> 100 µM	> 100 µM
CCOc1cc(NC(C)=O)ccc1C(=O)NN1C(=O)/C(=C/c2ccc(Cl)cc2)N=C1c1ccccc1	> 100 µM	> 100 µM	> 100 µM	> 100 µM	> 100 µM	89.6 µM	> 100 µM	> 100 µM	> 100 µM	> 100 µM
COc1ccc(CCN2C(=O)C(=O)C(C(=O)c3ccccc3)C2c2ccccc2)cc1OC (configuration not stated)	> 100 µM	> 100 µM	> 100 µM	> 100 µM	> 100 µM	> 100 µM	> 100 µM	> 100 µM	> 100 µM	–
C=C1C(=O)O[C@H]2[C@@H]3O[C@@](C)(CC/C=C(\C)CCC[C@@H]2C)[C@H](O)C[C@@H]13	22.1 µM	26.2 µM	53.6 µM	> 100 µM	4.53 µM	53 µM	21.6 µM	15.6 µM	24.4 µM	34.8 µM
COc1ccc(Cc2nc3cc(C(F)(F)F)ccc3n2C[C@@H]2CCCN3CCCCC23)cc1 (some centres not stated)	24 µM	27.4 µM	26.8 µM	> 64.8 µM	25.6 µM	19.5 µM	25.2 µM	26.2 µM	30.8 µM	25.1 µM
CC(C)CCNC(=O)c1ccc(CNC(=O)/C=C/c2ccc3c(c2)-c2ccccc2C3)cc1	> 100 µM	> 100 µM	> 100 µM	> 100 µM	78.9 µM	–	> 100 µM	> 100 µM	> 100 µM	80.1 µM
O=C1C/C(=C\c2ccccc2)C(=O)c2ccccc2N1	50.1 µM	39.5 µM	42.7 µM	–	33.1 µM	49.2 µM	49.7 µM	> 100 µM	44.7 µM	49.1 µM
COc1cc(CCNC2=CC(=O)c3ncccc3C2=O)ccc1O	22.5 µM	24.9 µM	2.84 µM	17.7 µM	12 µM	> 26.9 µM	6.24 µM	6.06 µM	> 34.6 µM	12.1 µM
CC1=C(C(N)=O)C(c2ccncc2)C(C#N)C(=O)N1 (configuration not stated)	> 100 µM	> 100 µM	> 100 µM	> 100 µM	> 100 µM	> 100 µM	> 100 µM	> 100 µM	> 100 µM	> 100 µM
CC(C)=CCN1c2ccccc2[C@@]2(CC=C(C)C)CCN(C)[C@@H]12	> 100 µM	> 100 µM	54.3 µM	48.2 µM	> 100 µM	38.1 µM	> 100 µM	34.4 µM	> 100 µM	> 100 µM
COc1ccc(N(c2ccc(C#N)cc2)c2ccc(C#N)cc2)cc1	> 100 µM	> 100 µM	> 100 µM	–	> 100 µM	> 100 µM	> 100 µM	> 100 µM	> 100 µM	> 100 µM
NC(Cc1c2ccccc2cc2ccccc12)C(=O)O (configuration not stated)	> 100 µM	> 100 µM	> 100 µM	> 100 µM	> 100 µM	> 100 µM	> 100 µM	> 100 µM	> 100 µM	> 100 µM
CCO/C=N\C1=C(C#N)SC2=N/C(=C\c3ccco3)C(=O)N21	> 100 µM	> 100 µM	> 100 µM	> 100 µM	> 100 µM	> 100 µM	> 100 µM	> 100 µM	> 100 µM	> 100 µM
C[C@@H](NC(=O)Nc1cccc(C(=O)Nc2cc(C(C)(C)C)ccc2C(=O)O)n1)c1ccccc1	79.1 µM	> 100 µM	> 100 µM	> 100 µM	> 100 µM	> 100 µM	50 µM	47.9 µM	> 100 µM	> 100 µM
CC(C(=O)NCNC(=O)c1ccccc1)C(=O)NCc1ccccc1 (configuration not stated)	> 100 µM	> 100 µM	> 100 µM	–	> 100 µM	> 100 µM	> 100 µM	> 100 µM	> 100 µM	–
CC12CCC(C(=Nc3ccc([N+](=O)[O-])cc3)C1=O)C2(C)C (configuration not stated)	> 100 µM	92.9 µM	64.6 µM	55.2 µM	> 100 µM	–	76.6 µM	> 100 µM	> 100 µM	69.8 µM
COC(=O)[C@@H](N1C(=O)c2ccccc2C1=O)C1(C)CC(Cl)=NO1 (some centres not stated)	> 100 µM	> 100 µM	> 100 µM	> 100 µM	83.7 µM	–	60.3 µM	> 100 µM	> 100 µM	> 100 µM
CC(=O)O[C@H]1CC[C@@]2(C)C(=CC[C@@H]3[C@@H]2CC[C@]2(C)C(=O)/C(=C\c4ccccc4)C[C@@H]32)C1	> 100 µM	> 100 µM	> 100 µM	> 100 µM	> 100 µM	–	> 100 µM	> 100 µM	> 100 µM	> 100 µM
COc1ccc2c(c1)SC1=Nc3sc4cc(OC)ccc4[n+]3CN12	> 100 µM	71.9 µM	> 100 µM	> 100 µM	> 100 µM	63.5 µM	> 100 µM	31.4 µM	> 100 µM	–
CC(=O)OC(C(=O)NNC(=O)OC(C)(C)C)c1ccccc1 (configuration not stated)	> 100 µM	> 100 µM	> 100 µM	> 100 µM	> 100 µM	–	> 100 µM	> 100 µM	> 100 µM	–
CCOC(=O)c1cn2c(n1)sc1cc([N+](=O)[O-])ccc12	> 100 µM	> 100 µM	> 100 µM	> 100 µM	> 100 µM	–	> 100 µM	> 100 µM	> 100 µM	> 100 µM
